In patent publication US8202909B2, “Method for treating central nervous system disorders” (Sucampo AG, priority 2005, dated 2012):
Marks after values point to notes of the source that are not given here.

Legend:
ddY mice [1] = assay: Persistent time of gasping movements after decapitation in mice, subcutaneous (Example 1); assay type: in vivo; settings: for Persistent Time of Gasping Movements: decapitated 30 minutes after administration, Mean ± SE, n=10
Experimental: (§1) Four-week-old male ddY mice were housed in aluminum cages in an animal room controlled for temperature (24±3° C.), relative humidity (55±10%), ventilation rate (˜12 times/hour) and light-dark cycle (fluorescent lighting: 8:00 to 20:00) for at least 7 days. The animals were allowed free access to pellet diet and tap water from water bottles. Healthy animals without abnormalities in general signs were used in this study.
11-deoxy-13,14-dihydro-15-keto-16,16-difluoro-PGE1 (hereinafter, “Compound A”) was dissolved in a vehicle (physiologic saline containing 0.01% polysorbate 80 and 0.5% ethanol), and was administered subcutaneously to the animals. The control group received an equal amount of the vehicle in the same manner.
(§2) The animals were decapitated at 30 minutes after the administration, and the persistent time of gasping movements was measured.

ddY mice [2] = assay: Persistent time of gasping movements after decapitation in mice, oral administration (Example 2); assay type: in vivo; settings: for Persistent Time of Gasping Movements: fasted mice, decapitated 30 minutes after administration, Mean ± SE, n=10; for Effect on persistent time of gasping movement after decapitation (in words): oral administration at 100, 300 and 1000 μg/kg
Experimental: as §1, with “study. The animals were fasted for 20 hours or longer with free access to water before use.” for “study.”
Compound A and 11-deoxy-13,14-dihydro-15-keto-16,16-difluoro-PGE1 methyl ester (hereinafter, “Compound B”) were dissolved in a vehicle (physiologic saline containing 0.01% polysorbate 80 and 0.5% ethanol), and was administered orally to the animals. The control group received an equal amount of the vehicle in the same manner.
as §2

Crj: CD (SD) male rats = assay: Cerebral infarct volume after transient focal cerebral ischemia (MCA occlusion-reperfusion) in rats; assay type: in vivo; settings: for Infarct volume: brain removed 24 hours after MCA occlusion, mean±S.E., n=10
Experimental: Seven-week-old Crj: CD (SD) male rats were housed in polymethylpentene cages in an animal room controlled for room temperature (22-26° C.), relative humidity (47-60%), ventilation rate (10-20 times/hour) and light-dark cycle (lighting: 7:00 to 19:00) for at least 6 days. The animals were allowed free access to pellet diet and water from water bottles. Animals judged to be in good health were used in this study.
Rats were anesthetized by inhalation of a gas mixture of 2% isoflurane and N2O:O2 (=7:3), stabilized in the supine position, and maintained in the anesthetized state by inhalation of the above gas mixture. The animals were monitored for rectal temperature using a temperature probe during the period of the surgical operation. When a fall in body temperature was observed, an incandescent lamp was used to maintain the temperature at around 37° C. The right common carotid artery, external carotid artery, and internal carotid artery were exposed for occluding the middle cerebral artery (hereafter, MCA). The right common carotid artery and the external carotid artery were ligatured using sutures (5-0), and a 19 mm-long segment of No. 4-0 nylon suture which were precoated with silicone was inserted into the MCA through the bifurcation of the external and internal carotid arteries to occlude the MCA. At 2 hours after the MCA occlusion, the suture was removed and the blood flow in the MCA was restored.
Compound A was dissolved in a vehicle (physiological saline containing 1% polysorbate 80), and was administered intravenously to the animals at a volume of 2 mL/kg immediately after the MCA occlusion-reperfusion and 30 minutes after the MCA occlusion-reperfusion. The control group received an equal volume of the vehicle in the same manner.
At 24 hours after MCA occlusion, the animals were decapitated and the brains were immediately isolated. […] Graphic analysis (Adobe Photoshop™, version 3.0 J; Adobe Systems Incorporated, Color Count 0.3b; K&M Software Corporation) was applied to the photographs, and the infarct area was measured. […]

[3] = system: Alzheimer's disease model animals; assay: Morris water maze test in Alzheimer's disease model animals (bilateral ibotenic acid lesions of basal ganglia); assay type: in vivo, rats
Experimental: Alzheimer's disease model animals were prepared by bilateral ibotenic acid lesions of basal ganglia in rats. Briefly, rats were anesthetized with pentobarbital sodium and placed in a small animal stereotaxic apparatus. Bilateral infusions of 5 μg/0.5 μL of ibotenic acid into the basal ganglia were made at a rate of 0.1 μL/min via a syringe pump and a stainless steel cannula (outer diameter: 0.5 mm). Stereotaxic coordinates were as follows: −0.8 mm posterior from bregma, 2.6 mm lateral (both sides) from midline, and 7.4 mm depth from the bone surface. Animals in sham group received only anesthesia. Animals were then housed with free access to food and water for the rest of the study.
Compound A was orally administered for 14 days after surgery to the model animals. Control group received the same amount of the vehicle.
Morris water maze test was performed to evaluate the effect of test compound. The water maze was a circular pool (painted gray, 1.48 m in diameter, 0.33 m high). The pool contained water that was maintained at a temperature of 17-18° C. During testing in the water maze, a platform, 12 cm in diameter, was located 2 cm below the water in one of four locations (zone 4) in the pool, approximately 38 cm from the sidewall. A light bulb was placed around the pool as a cue external to the maze. The animals received 2 trials per day from 10 days after the initiation of the administration with Compound A or the vehicle. The rats were trained to locate the hidden escape platform, which remained in a fixed location throughout testing. Trials lasted a maximum of 90 sec. The latency to find the submerged platform was recorded and used as a measure of acquisition of the task. The animals were tested in this way for 4 days (total 8 trials), and then they received a probe trial on the 5th day. […] The time the rat spent searching for the platform in the training quadrant (zone 4): i.e., the previous location of the platform was recorded and used as an index of memory.

[4] = system: Human vascular endothelial cell cultures; assay: Recovery of transendothelial electrical resistance (TEER) after oxygen deprivation; assay type: cell-based; settings: 5 nM with 0.1% DMSO, after 30 minutes oxygen deprivation in nitrogen atmosphere; FIG. 1
Experimental: FIG. 1 is a graph showing the effect of Compound A on Recovery of Transendothelial Electrical Resistance (TEER). Human vascular endothelial cell cultures were brought to confluence, as measured by transendothelial electrical resistance (TEER). The cell cultures were then deprived of oxygen for 30 minutes by incubation in a nitrogen atmosphere. The cells were then either treated with 0.1% DMSO or with 5 nM Compound A with 0.1% DMSO. Statistical significance is indicated at all data points after drug treatment. N=10 cells.
Human vascular endothelial cell cultures were brought to confluence, as measured by transendothelial electrical resistance (TEER). The cell cultures were then deprived of oxygen for 30 minutes by incubation in a nitrogen atmosphere. The cells were then either treated with 0.1% DMSO or with 5 nM Compound A with 0.1% DMSO final.

[5] = system: Human microvascular endothelial cells (adult) (HMVEC-AD); assay: Recovery of ATP level after nitrogen atmosphere (luciferin-luciferase assay); assay type: cell-based; settings: 5 nM, after 30 minutes nitrogen atmosphere, compared to cells treated with 0.01% DMSO alone; FIG. 2
Experimental: FIG. 2 is a graph showing the effect of Compound A on Recovery of ATP Level. Human microvascular endothelial cells (adult) (HMVEC-AD) were grown to confluence. The cells were then treated for 30 minutes with a nitrogen atmosphere and returned to normal oxygen. ATP levels were monitored at the indicated time points using a luciferin-luciferase assay system (ATPlite, Perkin Elmer). ATP levels are given as relative luminescence. N=6 cells at each time point.
Human microvascular endothelial cells (adult) (HMVEC-AD) were grown to confluence. The cells were then treated for 30 minutes with a nitrogen atmosphere and returned to normal oxygen. ATP levels were monitored at the indicated time points using a luciferin-luciferase assay system (ATPlite, Perkin Elmer).

ddY mice [6] = assay: Persistent time of gasping movements after decapitation in mice, subcutaneous (Example 3); assay type: in vivo; settings: 300 μg/kg s.c.
Experimental: as §1
11-deoxy-13,14-dihydro-16,16-difluoro-PGE1 (hereinafter, “Compound C”) was dissolved in a vehicle (physiologic saline containing 0.01% polysorbate 80 and 0.5% ethanol), and was administered subcutaneously to the animals. The control group received an equal amount of the vehicle in the same manner.
as §2

Compound	Persistent Time of Gasping Movements (ddY mice [1]; 10 μg/kg s.c.)	Persistent Time of Gasping Movements (ddY mice [1]; 30 μg/kg s.c.)	Persistent Time of Gasping Movements (ddY mice [1]; 100 μg/kg s.c., p<0.05 vs vehicle)	Persistent Time of Gasping Movements (ddY mice [1]; 300 μg/kg s.c., p<0.01 vs vehicle)	Effect on persistent time of gasping movement after decapitation (in words) (ddY mice [1]; 10, 30, 100 and 300 μg/kg s.c.)	Persistent Time of Gasping Movements (ddY mice [2]; 100 μg/kg p.o.)	Persistent Time of Gasping Movements (ddY mice [2]; 300 μg/kg p.o.)	Persistent Time of Gasping Movements (ddY mice [2]; 1000 μg/kg p.o.)	Effect on persistent time of gasping movement after decapitation (in words) (ddY mice [2])	Infarct volume (Crj: CD (SD) male rats; 0.05 mg/kg i.v. immediately after and 30 minutes after MCA occlusion-reperfusion, P<0.05)	Infarct volume (Crj: CD (SD) male rats; 0.5 mg/kg i.v. immediately after and 30 minutes after MCA occlusion-reperfusion, P<0.01)	Effect on cerebral infarct volume after ischemia (in words) (Crj: CD (SD) male rats; 0.05 and 0.5 mg/kg i.v., compared with vehicle group)	Goal latency (8th trial) ([3]; 1 mg/kg orally for 14 days after surgery, mean ± SE, n=10, p<0.01 vs vehicle)	Time spent in zone 4 ([3]; 1 mg/kg orally for 14 days after surgery, probe trial 90 sec, mean ± SE, n=10, p<0.05 vs vehicle)	Effect on deficit in learning and memory (in words) ([3]; orally for 14 days after surgery, Morris water maze)	Recovery of TEER (in words) [4]	Recovery of ATP level (in words) [5]	Effect on persistent time of gasping movement after decapitation (in words) (ddY mice [6])	Persistent Time of Gasping Movements (ddY mice [6]; decapitated 30 minutes after administration, Mean ± SE, n=10, p<0.01 vs vehicle)
CCCCC(F)(F)C(=O)CCC1CCC(=O)C1CCCCCCC(=O)O (centres unmarked) [Compound A, 11-deoxy-13,14-dihydro-15-keto-16,16-difluoro-PGE1]	21.7 ± 0.6 s	22.0 ± 0.4 s	23.2 ± 0.8 s	23.6 ± 0.6 s	dose-dependent prolongation	18.8 ± 0.5 s	18.9 ± 0.3 s	20.2 ± 0.6 s	dose-dependent prolongation	208.2 ± 22.2* mm^3	172.9 ± 25.5** mm^3	significantly reduced the cerebral infarct volume	51.5 ± 13.7 s	20.8 ± 3.6 s	significant reversals of the deficit in learning and memory	immediate recovery of TEER	ATP levels returned more quickly		
CCCCC(F)(F)C(=O)CCC1CCC(=O)C1CCCCCCC(=O)OC (centres unmarked) [Compound B, 11-deoxy-13,14-dihydro-15-keto-16,16-difluoro-PGE1 methyl ester]						17.6 ± 0.5 s	19.1 ± 0.5 s	19.1 ± 0.4 s	dose-dependent prolongation										
CCCCC(F)(F)C(O)CCC1CCC(=O)C1CCCCCCC(=O)O (centres unmarked) [Compound C, 11-deoxy-13,14-dihydro-16,16-difluoro-PGE1]																		significant prolongation	25.2 ± 0.7 s
